In article PMC8894159, “Paltusotine, a novel oral once-daily nonpeptide SST2 receptor agonist, suppresses GH and IGF-1 in healthy volunteers” (Pituitary, 2022):
Read-outs that look alike come from different tables or passages of the source.

Legend:
[1] = design: method as in ref 14 = [14]; 14. Madan A, Juo R, Ferrara-Cook C, Struthers RS, van Marle S, Krasner A (2020) Absorption, metabolism, excretion and absolute oral bioavailability [ 14 C]-CRN00808, an orally bioavailable, nonpeptide; conditions: cited from earlier work
[2] = Safety and tolerability, single-dose cohorts; assay type: in vivo, human
Description: Adverse events and concomitant medications were recorded. Laboratory samples for clinical chemistry, hematology, coagulation tests, and urinalysis were collected under fasted conditions. Participants who discontinued prematurely attended an early termination visit.
For the safety analysis, adverse events were coded using the Medical Dictionary for Regulatory Activities (MedDRA® Version 20.0). Adverse events were grouped by preferred terms. Treatment-emergent adverse events (TEAEs) were summarized with descriptive statistics.

[3] = Single ascending dose plasma pharmacokinetics in healthy volunteers; assay type: in vivo; conditions: human
Description: In the single-dose phase, participants were randomized 6:2 to paltusotine (1.25, 2.5, 5, 10, 20, 40, and 60 mg) or placebo in 7 cohorts (S1 to S7). Cohorts comparing oral bioavailability of solution versus capsules and the effect of a standardized high-fat, high-calorie breakfast on oral bioavailability of the capsule formulation employed the 10 mg dose level. In the multiple-dose phase, participants were randomized 6:3 to once-daily oral paltusotine capsules or placebo at doses of 5 mg for 7 days (M1, Day Last = Day 7), and 10, 20, and 30 mg daily for 10 days (M2, M3, M4, Day Last = Day 10). The initial starting dose of 1.25 mg in the single-dose phase was selected for this study based on nonclinical pharmacologic activity, pharmacokinetics, and safety studies. Subsequent doses were either specified in the protocol or were selected by the safety review committee responsible for the safety oversight of the study.
Single-dose cohorts: Plasma samples were collected on Day 1 (pre-dose, every 15 min up to 90 min post-dose, then at 2, 3, 4, 6, 8, 10, 12, 18, 24, 48, 72, 96, 120, and 144 h post-dose). Multiple-dose cohorts: For the 5 mg cohort, plasma samples were collected on Day 1 (pre-dose, every 15 min up to 90 min post-dose, then at 2, 3, 4, 6, 8, 10, 12, and 18 h post-dose), Days 2–6 (pre-dose and 2 h post-dose), Day 7 (same time points as Day 1, followed by samples at 18, 24, 48, 72, 96, 120, and 144 h post-dose). For all other multiple-dose cohorts, plasma samples were collected on Day 1 (pre-dose, every 15 min up to 90 min post-dose, then at 2, 3, 4, 6, 8, 10, 12, and 18 h post-dose), Days […] (same time points as Day 1, followed by samples at 18, 24, 48, 72, 96, 120, 144, 192, and 240 h post-dose).
Plasma pharmacokinetic sample analysis for paltusotine was determined using validated procedures by CPR Pharma Services (Thebarton, Australia). Briefly, plasma paltusotine concentrations were determined by high-pressure liquid chromatography (HPLC) coupled with tandem mass spectrometry detection (MS/MS). Deuterated paltusotine was used as an internal standard. Supported liquid extraction was used to extract paltusotine and the internal standard. The analyte was separated by HPLC using an ACE C18-AR column (Advanced Chromatography Technologies, Ltd, Aberdeen, Scotland), and the eluates were monitored by an API 4000™ LC–MS/MS System (Sciex, Framingham, MA) in positive multiple reaction monitoring mode. The extract was then assayed against a calibration curve. The data were acquired and integrated by the data acquisition software Analyst® (Sciex), linked directly to the API 4000™ LC–MS/MS System, and then processed using Watson LIMS™ software (Thermo Scientific, Waltham, MA), where applicable. The calibration range was 0.100 to 100 ng/mL using 100 μL of plasma, with a lower limit of quantification of 0.100 ng/mL. The inter-assay accuracy was 94% to 100%, and the inter-assay precision (% CV) was between 6.1% and 15%.
For assessing pharmacokinetics of paltusotine, the single-dose pharmacokinetic population included all randomized participants who received any amount of study drug with sufficient plasma concentration data. For the multiple-dose cohorts, only participants who received all doses were included. The relative bioavailability of the capsule formulation was determined by comparing its pharmacokinetic parameters with those of the solution formulation at the 10 mg dose. Food effect was determined at the same dose by comparing pharmacokinetic parameters in the fasting state to those when paltusotine was administered with a high-fat, high-calorie meal. For both formulation and food effect, ANOVA with treatment as a fixed effect and subject as a random effect was performed. Data for peak concentration (Cmax), AUC0-last, and AUC0-inf were natural log-transformed.

[4] = design: method as in doi:10.1530/endoabs.70.AEP627; conditions: separate study, cited from earlier work
[5] = single-dosing, safety population N = 41
[6] = oral, single dose 40 mg capsules, fasted, mean ± SD
[7] = oral, single dose 60 mg capsules, fasted, mean ± SD
[8] = single dose 1.25 mg oral solution, fasted, mean ± SD
[9] = single dose 2.5 mg oral solution, fasted, mean ± SD
[10] = single dose 5 mg oral solution, fasted, mean ± SD
[11] = single dose 10 mg oral solution, fasted, mean ± SD
[12] = single dose 20 mg oral solution, fasted, mean ± SD

Cl.N#Cc1cccc(-c2ccc3ncc(-c4cc(F)cc(F)c4)c(N4CCC(N)CC4)c3c2)c1O [paltusotine, 3-[4-(4-Aminopiperidin-1-yl)-3-(3,5-difluorophenyl)quinolin-6-yl]-2-hydroxybenzonitrile hydrochloride]
oral bioavailability in animals [1]: high oral bioavailability
life-threatening events or deaths ([2]; all cohorts): No life-threatening events or deaths occurred
tolerability ([2]; single-dose administration): well tolerated
share of TEAEs occurring at a dose level of 10 mg or higher ([2]; single-dose cohorts): 64%
Abdominal distension (TEAE) [2, 5]: 2 (4.9%) n (%)
Abdominal pain (TEAE) [2, 5]: 2 (4.9%) n (%)
Abdominal pain upper (TEAE) [2, 5]: 2 (4.9%) n (%)
Back pain (TEAE) [2, 5]: 2 (4.9%) n (%)
Fatigue (TEAE) [2, 5]: 2 (4.9%) n (%)
Headache (TEAE) [2, 5]: 5 n (%)
Hypoesthesia (TEAE) [2, 5]: 2 (4.9%) n (%)
Nausea (TEAE) [2, 5]: 2 (4.9%) n (%)
Participants with at least 1 TEAE [2, 5]: 28 (68.3%) n (%)
Tension headache (TEAE) [2, 5]: 2 (4.9%) n (%)
Ventricular tachycardia (non-sustained) (TEAE) [2, 5]: 2 (4.9%) n (%)
Headache (TEAE) ([2]; single-dosing, safety population N = 41, listed as Paltusotine): 5 (12.2%) n (%)
half-life ([3]; oral, overall summary (abstract), read-out: half-life of elimination (converted)): ~30 h
half-life ([3]; oral, sampling up to 144 h post-dose (single-dose cohorts and 5 mg multiple-dose cohort), range, read-out: t1/2 (converted)): 22 to 34 h
AUC(0-inf) [3, 6]: 2650 ± 1200 ng·h/mL
Cmax [3, 6]: 185 ± 118 ng/mL
Tmax ([3]; oral, single dose 40 mg capsules, fasted, mean ± SD, read-out: Tmax): 3.4 ± 1.1 h
half-life ([3]; oral, single dose 40 mg capsules, fasted, mean ± SD, read-out: t1/2 (converted)): 27 ± 3.1 h
AUC(0-inf) [3, 7]: 2300 ± 1060 ng·h/mL
Cmax [3, 7]: 154 ± 77.6 ng/mL
Tmax ([3]; oral, single dose 60 mg capsules, fasted, mean ± SD, read-out: Tmax): 3 ± 1.2 h
half-life ([3]; oral, single dose 60 mg capsules, fasted, mean ± SD, read-out: t1/2 (converted)): 25 ± 2.1 h
AUC(0-inf) [3, 8]: 122 ± 25.7 ng·h/mL
Cmax [3, 8]: 9.81 ± 1.56 ng/mL
Tmax ([3]; single dose 1.25 mg oral solution, fasted, mean ± SD, read-out: Tmax): 1.3 ± 0.44 h
half-life ([3]; single dose 1.25 mg oral solution, fasted, mean ± SD, read-out: t1/2 (converted)): 22 ± 5.5 h
AUC(0-inf) [3, 9]: 320 ± 66.3 ng·h/mL
Cmax [3, 9]: 22.7 ± 4.74 ng/mL
Tmax ([3]; single dose 2.5 mg oral solution, fasted, mean ± SD, read-out: Tmax): 1.6 ± 0.8 h
half-life ([3]; single dose 2.5 mg oral solution, fasted, mean ± SD, read-out: t1/2 (converted)): 29 ± 9 h
AUC(0-inf) [3, 10]: 590 ± 93.7 ng·h/mL
Cmax [3, 10]: 48.1 ± 7.05 ng/mL
Tmax ([3]; single dose 5 mg oral solution, fasted, mean ± SD, read-out: Tmax): 1.3 ± 0.41 h
half-life ([3]; single dose 5 mg oral solution, fasted, mean ± SD, read-out: t1/2 (converted)): 25 ± 9.4 h
AUC(0-inf) [3, 11]: 1650 ± 464 ng·h/mL
Cmax [3, 11]: 95.2 ± 19.3 ng/mL
Tmax ([3]; single dose 10 mg oral solution, fasted, mean ± SD, read-out: Tmax): 2.2 ± 1.3 h
half-life ([3]; single dose 10 mg oral solution, fasted, mean ± SD, read-out: t1/2 (converted)): 29 ± 4.3 h
AUC(0-inf) [3, 12]: 2960 ± 963 ng·h/mL
Cmax [3, 12]: 167 ± 29.1 ng/mL
Tmax ([3]; single dose 20 mg oral solution, fasted, mean ± SD, read-out: Tmax): 1.9 ± 1 h
half-life ([3]; single dose 20 mg oral solution, fasted, mean ± SD, read-out: t1/2 (converted)): 29 ± 5 h
Tmax ([3]; single-dose oral solution, fasted, range across 1.25-20 mg, read-out: Tmax (time of median peak concentrations)): 1.3 to 2.2 h
half-life ([3]; single-dose oral solution, fasted, range across 1.25-20 mg, read-out: apparent terminal elimination t1/2): 22 to 29 h
mean absolute oral bioavailability ([4]; oral solution): 70%
t1/2 after intravenous administration ([4]; sampling up to 144 h): 29 h
